12 compounds from ChEMBL document CHEMBL3621118, “Virtual screening for novel Atg5Atg16 complex inhibitors for autophagy modulation” (2015) can be followed below.

Experiment [1] relates to A2780. As to the kind of experiment: Inhibition of PBS-induced autophagy in human A2780 cells assessed as decrease in depletion of p62 level at 50 to 100 uM preincubated for 1 hr followed by PBS induction measured after 3 hrs by Western blot analysis. It is filed as functional, cell-based.
In experiment [2] the test system is A2780. As to the kind of experiment: Inhibition of PBS-induced autophagy in human A2780 cells assessed as decrease in LC3-2 level at 50 to 100 uM preincubated for 1 hr followed by PBS induction measured after 3 hrs by Western blot analysis. It counts as functional, cell-based.
Another experiment has as its system MCF7. Kind of experiment: Inhibition of chloroquine-induced autophagy in human MCF7 cells assessed as suppression of autophagosome formation at 25 uM after 5 hrs by MDC staining-based fluorescence microscopic analysis. It counts as functional, cell-based.
Experiment [3] can be described thus: Cytotoxicity against human NCI60 cells assessed as cell growth at 10 uM after 24 hrs by SRB assay relative to control. It counts as functional. The note with it: NCI60, 24 h, read-out: Activity. A general note: The SRB assay estimates cell density from bound dye.
For experiment [4], the system named is A2780. As to the kind of experiment: Inhibition of PBS-induced autophagy in human A2780 cells assessed as decrease in LC3-2 level preincubated for 1 hr followed by PBS induction measured after 3 hrs by Western blot analysis. It is filed as functional, cell-based. For orientation: Immunoblotting shows a protein as a band on a membrane.
Experiment [5] has as its system A2780. Kind of experiment: Inhibition of PBS-induced autophagy in human A2780 cells assessed as decrease in depletion of p62 level preincubated for 1 hr followed by PBS induction measured after 3 hrs by Western blot analysis. It is filed as functional, cell-based.

Calls of active or inactive are those of the source. The calls are words filed in the database; no cut-off is given here.

Consider `O=C(CNC(=O)c1ccc(Cl)cc1Cl)OCC(=O)c1ccc(Br)cc1`, for which the inhibition entry in the experiment with A2780 [1] and in the experiment with A2780 [2] was “inactive” in each case.
Take `Cc1cccc(CS(=O)(=O)NCc2ccc(N3CCCC3)cc2)c1`: the inhibition result in the experiment on A2780 [1], with MCF7 and in the experiment on A2780 [2] was “Active” each time. Also, in experiment [3], the growth at 10 µM worked out at 90.1%.
Consider `Cc1ccc(OCC(=O)Nc2ccc(N3CCN(C(=O)c4ccco4)CC3)cc2)cc1`, for which the inhibition entry with A2780 [1] and with A2780 [2] was “Active” throughout.
For the compound `O=C(NCCCCc1ccccc1)c1ccccc1Br`, the inhibition result in the experiment on A2780 [1] and with A2780 [2] was “inactive” each time.
For the compound `O=C(NC1CCN(Cc2ccccc2)CC1)c1ccc(Cl)cc1Cl`, the inhibition result with A2780 [1] and in the experiment with A2780 [2] was “inactive” throughout.
Take `O=C(NCCCCc1ccccc1)c1cccc(Br)c1`: the inhibition entry with A2780 [1] and with A2780 [2] was “inactive” throughout.
`O=C(NCCCCc1ccccc1)c1ccc(Br)cc1`: the inhibition entry in the experiment with A2780 [1] and in the experiment with A2780 [2] was “inactive” in each case.
Regarding `O=C(NCCCOc1ccccc1)c1cccc2ccccc12`, the inhibition result in the experiment with A2780 [1], in the experiment with MCF7 and in the experiment on A2780 [2] was “Active” each time.
Consider `O=C(NCCCCc1ccccc1)c1ccccc1F`, for which the inhibition result with A2780 [1] and with A2780 [2] was “Active” each time.
With `COc1ccc(NC(=O)C(=O)NCCN2CCN(C(=O)c3ccc(Cl)cc3Cl)CC2)cc1`, the inhibition result in the experiment on A2780 [1] and with A2780 [2] was “inactive” each time.
Regarding `O=C(NCCCc1ccccc1)c1ccccc1`, the inhibition result in the experiment on A2780 [1] and in the experiment on A2780 [2] was “inactive” throughout.
As to `O=C(NCCCCc1ccccc1)c1ccc(Cl)cc1Cl`, the inhibition entry in the experiment with A2780 [4] and with A2780 [5] was “Dose-dependent effect” throughout. Besides, in the experiment with MCF7, the inhibition entry was “Active”.
